Experiment [1] deals with colorectal (HCT116 and SW620) cell line models. Description: MTS growth inhibition assay. The class given is cell-based. The conditions noted are these: increasing concentrations of 5-FU between 0 and 100 μmol/L; both colorectal cancer cell lines evaluated. As for the experimental part: The Cell Titer AQueous MTS assay (Promega) is carried out according to the manufacturers guidelines. […] The combination effect is determined by the combination index (CI) method utilizing Calcusyn software (Biosoft, Ferguson, Mo.). Fraction affected (FA) is calculated from the percent growth inhibition: FA=[…]. CI values <1, synergism; 1-1.2, additive and >1.2, antagonism.
MTS growth inhibition assays are performed to evaluate the effectiveness of the test compounds alone and in combination with the fluoropyrimidine thymidylate synthase (TS) inhibitor 5-fluorouracil (5-FU) at inhibiting the growth of colorectal (HCT116 and SW620) cell line models. […] Simultaneous treatment with increasing concentrations of 5-FU and a test compound at fixed concentrations of 25 μmol/L is determined.
In general terms: Tetrazolium assays rely on reduction of a dye to a coloured formazan, in cell work by metabolically active cells.

For experiment [2], the system named is colorectal (HCT116), breast (MCF-7) and non-small cell lung (H1299, A549, H358 and H460) cell line models. Description: Colony forming assay. The class given is cell-based. Conditions: increasing concentrations of FUdR between 0.5 and 2.5 μmon; all cell lines evaluated. As for the experimental part: Colony forming assay showing the ability of colon (SW620, HCT116), non-small cell lung (A549, H460, H1299 and H358) and breast (MCF7) cancer cells to survive and proliferate following transient 24 hour exposure to test compounds, FUdR and combinations are determined. Specifically, cells are seeded at densities between 50 and 100 cells/well in 24-well plates. […] After 24 hours, drug is removed, cells are rinsed and allowed to outgrow for 10-14 days. At the conclusion of the outgrowth, cells are fixed in 60% ice cold methanol and stained with 0.1% crystal violet, scanned and counted. Data is presented as percentage of untreated controls (mean±SD). Fraction affected and combination indexes are calculated according to the method of Chou and Talalay where <1 is indicative of a synergistic drug interaction.
In colorectal cancer cells, concentrations of test compounds ranging e.g., from 3.1 μmol/L to 50 μmol/L are combined with 0.5 μmol/L FUdR in HCT116 cells and 1 μmol/L FUdR in SW620 cells.

As to `O=c1[nH]cc(F)c(=O)[nH]1` [Example 5-FU, 5-fluorouracil], the growth inhibition result in experiment [1] was “dose-dependent increases in growth inhibition”. As for `O=c1[nH]c(=O)n([C@H]2C[C@H](O)[C@@H](CO)O2)cc1F` [FUdR, fluorodeoxyuridine], the colonies formed result in experiment [2] was “dose-dependent decreases in colonies formed”.
